Data from patent publication US20250213572A1, “TYK2 INHIBITORS AND USES THEREOF” (Takeda Pharmaceutical Company Limited, priority 2022, published 2025).
“Also recorded” adds a separate entry of the source. Marks after values point to notes of the source that are not given here.

Legend:
[1] = Three placebo-controlled Phase I studies, pooled summary; conditions: across the 3 Phase I studies
[2] = system: TYK2-dependent IL12-induced INFγ production; experiment: TYK2-dependent IL12-induced INFγ production in rat; format: in vivo; conditions: not shown
[3] = system: moderate to severe plaque psoriasis; experiment: Phase 2b study in plaque psoriasis (Example 4): efficacy; format: in vivo, human; conditions: for Achieving PASI 75 at Week 12, number of patients: mITT
Description: Efficacy Analyses: The primary endpoint can be translated as a responder analysis, where a subject will be classified as responder if he or she achieves PASI-75 at Week 12. The comparison between groups for the primary endpoint will be done using a Cochran-Mantel-Haenszel (CMH), with prior treatment with biologics included as a stratification factor. The primary efficacy analysis will be performed on the intent-to-treat (ITT) analysis set, while the per-protocol (PP) analysis set will be used as a sensitivity analysis.
The secondary endpoints involving proportions of subjects will be analyzed using the same approach (CMH test) as described for the primary efficacy analysis, at each time point and based on the ITT analysis. The continuous secondary endpoints involving absolute change from baseline will be analyzed using a mixed effect model repeated measures method (MMRM) based on the ITT analysis set only. The model will include treatment, visit, treatment-by-visit interaction, and prior treatment with biologics as fixed effects, and baseline score as a covariate.

CYP450 2D6 = CYP450 2D6 (Homo sapiens, UniProt P10635); experiment: CYP450 inhibition, 2D6; format: in vitro ADME
Chain of CYP450 2D6 (P10635 whole entry): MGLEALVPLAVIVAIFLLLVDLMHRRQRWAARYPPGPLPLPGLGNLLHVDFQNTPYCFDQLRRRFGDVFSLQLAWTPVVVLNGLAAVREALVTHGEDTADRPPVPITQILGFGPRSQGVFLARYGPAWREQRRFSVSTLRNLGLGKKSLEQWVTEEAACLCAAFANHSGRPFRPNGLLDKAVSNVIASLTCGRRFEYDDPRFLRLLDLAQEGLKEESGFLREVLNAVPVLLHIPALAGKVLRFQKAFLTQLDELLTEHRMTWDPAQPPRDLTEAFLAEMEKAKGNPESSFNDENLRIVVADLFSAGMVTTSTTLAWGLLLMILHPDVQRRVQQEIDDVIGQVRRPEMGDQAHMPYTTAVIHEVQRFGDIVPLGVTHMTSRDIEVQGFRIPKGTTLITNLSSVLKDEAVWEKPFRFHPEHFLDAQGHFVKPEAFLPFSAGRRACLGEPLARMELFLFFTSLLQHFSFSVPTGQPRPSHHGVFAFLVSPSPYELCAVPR

[4] = Phase 2b study in plaque psoriasis (Example 4): safety
panel of 631 kinases = experiment: Binding screen against a panel of 631 kinases; conditions: 1 micromolar concentration
CYP450 2C19 = CYP450 2C19 (Homo sapiens, UniProt P33261); experiment: CYP450 inhibition, 2C19; format: in vitro ADME
Chain of CYP450 2C19 (P33261 whole entry): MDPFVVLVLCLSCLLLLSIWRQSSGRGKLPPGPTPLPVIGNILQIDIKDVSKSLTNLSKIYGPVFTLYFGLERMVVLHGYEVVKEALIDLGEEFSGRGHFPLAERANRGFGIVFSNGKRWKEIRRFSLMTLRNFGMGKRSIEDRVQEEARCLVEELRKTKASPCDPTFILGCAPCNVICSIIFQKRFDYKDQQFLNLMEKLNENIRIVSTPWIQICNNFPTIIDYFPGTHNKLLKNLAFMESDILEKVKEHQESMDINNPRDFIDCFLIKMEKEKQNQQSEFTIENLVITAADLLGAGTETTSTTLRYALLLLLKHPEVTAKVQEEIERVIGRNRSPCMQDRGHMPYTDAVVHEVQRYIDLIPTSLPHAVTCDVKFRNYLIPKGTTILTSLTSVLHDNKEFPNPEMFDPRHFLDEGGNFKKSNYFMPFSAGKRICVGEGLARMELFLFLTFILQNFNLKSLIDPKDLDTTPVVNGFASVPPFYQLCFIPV

[5] = format: in vivo, human
Description: The observed accumulation ratio, between Day 1 and Day 28, in this study was consistent with the value obtained in the previous study in healthy volunteers.

[6] = system: adjuvant-induced arthritis; experiment: Rat adjuvant-induced arthritis (AIA) efficacy model; conditions: administered daily for 20 days
Description: On day 0, the adjuvant was injected. On day 9, baseline ankle diameters were measured. On days 12-20, daily ankle diameter measurements were taken. On day 20, a final necroscopy and paw weight measure were taken.

[7] = human, in vivo
[8] = system: 87 target panel of enzymes, ion channels, receptors; experiment: 87 target panel of enzymes, ion channels, receptors; format: biochemical; conditions: @ 10,000 nM
hepatocytes = experiment: Hepatocyte predicted clearance (Hepatopac low turnover assay), human; format: in vitro ADME

CNc1cc(Nc2cccn(-c3ccccn3)c2=O)nc2c(C(=O)N[C@@H]3CC[C@H]3OC)cnn12 [Compound 1, N-((1R,2R)-2-methoxycyclobutyl)-7-(methylamino)-5-((2-oxo-2H-[1,2′-bipyridin]-3-yl)amino)pyrazolo[1,5-a]pyrimidine-3-carboxamide]
serious adverse events (SAEs) or deaths [1]: No serious adverse events (SAEs) or deaths were observed
TYK2-dependent IL12-induced INFγ production [2]: Concentration-dependent suppression
Achieving PASI 75 at Week 12, number of patients ([3]; 2 mg QD (n = 50)): 9 Number of patients
PASI 75 at Week 12, proportion difference ([3]; 2 mg QD versus placebo): 12.3
Achieving PASI 75 at Week 12, number of patients ([3]; 5 mg QD (n = 52)): 23 Number of patients
PASI 75 at Week 12, proportion difference ([3]; 5 mg QD versus placebo): 38.5
Achieving PASI 75 at Week 12, number of patients ([3]; 15 mg QD (n = 53)): 36 Number of patients
PASI 75 at Week 12, proportion difference ([3]; 15 mg QD versus placebo): 61.9
Achieving PASI 75 at Week 12, number of patients ([3]; 30 mg QD (n = 52)): 35 Number of patients
PASI 75 at Week 12, proportion difference ([3]; 30 mg QD versus placebo): 61.5
patients who achieved clear skin ([3]; 30 mg QD, week 12): 33%
fractions of patients achieving PGA 1 and PGA 0 at Week 12 ([3]; FIG. 15): both increased with increasing dose of Compound 1
primary endpoint (PASI 75 response at week 12) ([3]; in vivo): achieved with Compound 1 at doses ≥5 mg
IC50 (CYP450 2D6): > 30 µM
kind of adverse event leading to drug discontinuation ([4]; 2 mg): Lymphocyte count decreased (2 mg)
AEs ([4]; 2 mg QD): 31 (62) Number of patients (percent)
AEs leading to discontinuation ([4]; 2 mg QD): 1 (2) Number of patients (percent)
ALT elevation, CTCAE Grade ≥3 ([4]; 2 mg QD): 0 Number of patients (percent)
AST elevation, CTCAE Grade ≥3 ([4]; 2 mg QD): 0 Number of patients (percent)
Acne ([4]; 2 mg QD): 0 Number of patients (percent)
Acneiform dermatitis ([4]; 2 mg QD): 0 Number of patients (percent)
Anemia, CTCAE Grade ≥3 ([4]; 2 mg QD): 0 Number of patients (percent)
COVID-19 ([4]; 2 mg QD): 6 (12) Number of patients (percent)
CPK elevation, CTCAE Grade ≥3 ([4]; 2 mg QD): 0 Number of patients (percent)
Cholesterol elevation, Wk 12, CTCAE Grade ≥3 ([4]; 2 mg QD): 0 Number of patients (percent)
Creatinine elevation, CTCAE Grade ≥3 ([4]; 2 mg QD): 0 Number of patients (percent)
Deaths ([4]; 2 mg QD): 0 Number of patients (percent)
Diarrhea ([4]; 2 mg QD): 3 (6) Number of patients (percent)
Lymphopenia, CTCAE Grade ≥3 ([4]; 2 mg QD): 1 (2) Number of patients (percent)
Serious AEs ([4]; 2 mg QD): 0 Number of patients (percent)
Thrombocytopenia, CTCAE Grade ≥3 ([4]; 2 mg QD): 0 Number of patients (percent)
Triglyceride elevation, Wk 12, CTCAE Grade ≥3 ([4]; 2 mg QD): 1 (2) Number of patients (percent)
Worsening of proteinuria, CTCAE Grade ≥3 ([4]; 2 mg QD): 0 Number of patients (percent)
kind of adverse event leading to drug discontinuation ([4]; 5 mg): Tachycardia and syncope (5 mg)
AEs ([4]; 5 mg QD): 28 (54) Number of patients (percent)
AEs leading to discontinuation ([4]; 5 mg QD): 1 (2) Number of patients (percent)
ALT elevation, CTCAE Grade ≥3 ([4]; 5 mg QD): 0 Number of patients (percent)
AST elevation, CTCAE Grade ≥3 ([4]; 5 mg QD): 0 Number of patients (percent)
Acne ([4]; 5 mg QD): 1 (2) Number of patients (percent)
Acneiform dermatitis ([4]; 5 mg QD): 1 (2) Number of patients (percent)
Anemia, CTCAE Grade ≥3 ([4]; 5 mg QD): 0 Number of patients (percent)
COVID-19 ([4]; 5 mg QD): 4 (8) Number of patients (percent)
CPK elevation, CTCAE Grade ≥3 ([4]; 5 mg QD): 0 Number of patients (percent)
Cholesterol elevation, Wk 12, CTCAE Grade ≥3 ([4]; 5 mg QD): 0 Number of patients (percent)
Creatinine elevation, CTCAE Grade ≥3 ([4]; 5 mg QD): 0 Number of patients (percent)
Deaths ([4]; 5 mg QD): 0 Number of patients (percent)
Diarrhea ([4]; 5 mg QD): 1 (2) Number of patients (percent)
Lymphopenia, CTCAE Grade ≥3 ([4]; 5 mg QD): 0 Number of patients (percent)
Serious AEs ([4]; 5 mg QD): 0 Number of patients (percent)
Thrombocytopenia, CTCAE Grade ≥3 ([4]; 5 mg QD): 0 Number of patients (percent)
Triglyceride elevation, Wk 12, CTCAE Grade ≥3 ([4]; 5 mg QD): 0 Number of patients (percent)
Worsening of proteinuria, CTCAE Grade ≥3 ([4]; 5 mg QD): 0 Number of patients (percent)
kind of adverse event leading to drug discontinuation ([4]; 15 mg): Pericardial effusion and pleural effusion (15 mg)
AEs ([4]; 15 mg QD): 28 (53) Number of patients (percent)
AEs leading to discontinuation ([4]; 15 mg QD): 1 (2) Number of patients (percent)
ALT elevation, CTCAE Grade ≥3 ([4]; 15 mg QD): 0 Number of patients (percent)
AST elevation, CTCAE Grade ≥3 ([4]; 15 mg QD): 0 Number of patients (percent)
Acne ([4]; 15 mg QD): 3 (6) Number of patients (percent)
Acneiform dermatitis ([4]; 15 mg QD): 1 (2) Number of patients (percent)
Anemia, CTCAE Grade ≥3 ([4]; 15 mg QD): 0 Number of patients (percent)
COVID-19 ([4]; 15 mg QD): 6 (11) Number of patients (percent)
CPK elevation, CTCAE Grade ≥3 ([4]; 15 mg QD): 1 (2) Number of patients (percent)
Cholesterol elevation, Wk 12, CTCAE Grade ≥3 ([4]; 15 mg QD): 0 Number of patients (percent)
Creatinine elevation, CTCAE Grade ≥3 ([4]; 15 mg QD): 0 Number of patients (percent)
Deaths ([4]; 15 mg QD): 0 Number of patients (percent)
Diarrhea ([4]; 15 mg QD): 1 (2) Number of patients (percent)
Lymphopenia, CTCAE Grade ≥3 ([4]; 15 mg QD): 0 Number of patients (percent)
Serious AEs ([4]; 15 mg QD): 1 (2) Number of patients (percent)
Thrombocytopenia, CTCAE Grade ≥3 ([4]; 15 mg QD): 0 Number of patients (percent)
Triglyceride elevation, Wk 12, CTCAE Grade ≥3 ([4]; 15 mg QD): 1 (2) Number of patients (percent)
Worsening of proteinuria, CTCAE Grade ≥3 ([4]; 15 mg QD): 0 Number of patients (percent)
kind of adverse event leading to drug discontinuation ([4]; 30 mg): CPK increased (30 mg); also recorded: One additional subject (30 mg) permanently discontinued study drug due to an AE of hypertensive urgency, but remained in study
AEs ([4]; 30 mg QD): 31 (60) Number of patients (percent)
AEs leading to discontinuation ([4]; 30 mg QD): 2 (4) Number of patients (percent)
ALT elevation, CTCAE Grade ≥3 ([4]; 30 mg QD): 0 Number of patients (percent)
AST elevation, CTCAE Grade ≥3 ([4]; 30 mg QD): 0 Number of patients (percent)
Acne ([4]; 30 mg QD): 2 (4) Number of patients (percent)
Acneiform dermatitis ([4]; 30 mg QD): 3 (6) Number of patients (percent)
Anemia, CTCAE Grade ≥3 ([4]; 30 mg QD): 0 Number of patients (percent)
COVID-19 ([4]; 30 mg QD): 7 (14) Number of patients (percent)
CPK elevation, CTCAE Grade ≥3 ([4]; 30 mg QD): 1 (2) Number of patients (percent)
Cholesterol elevation, Wk 12, CTCAE Grade ≥3 ([4]; 30 mg QD): 0 Number of patients (percent)
Creatinine elevation, CTCAE Grade ≥3 ([4]; 30 mg QD): 0 Number of patients (percent)
Deaths ([4]; 30 mg QD): 0 Number of patients (percent)
Diarrhea ([4]; 30 mg QD): 0 Number of patients (percent)
Lymphopenia, CTCAE Grade ≥3 ([4]; 30 mg QD): 0 Number of patients (percent)
Serious AEs ([4]; 30 mg QD): 0 Number of patients (percent)
Thrombocytopenia, CTCAE Grade ≥3 ([4]; 30 mg QD): 0 Number of patients (percent)
Triglyceride elevation, Wk 12, CTCAE Grade ≥3 ([4]; 30 mg QD): 1 (2) Number of patients (percent)
Worsening of proteinuria, CTCAE Grade ≥3 ([4]; 30 mg QD): 0 Number of patients (percent)
CPK ([4]; FIG. 17E): shows some variability at 15 mg and 30 mg with large error bars
Triglyceride elevation ([4]; FIG. 19B): minimal
hematological parameters, mean lab values and changes from baseline ([4]; FIGS. 17A-17E, weeks 0-16): do not reveal adverse trends in cell counts
hepatic and renal parameters, mean lab values and changes from baseline ([4]; FIGS. 18A-18E): do not reveal adverse trends for liver enzymes, creatinine or eGFR
lipid parameters, mean lab values and changes from baseline ([4]; FIGS. 19A-19E): do not reveal adverse trends for cholesterol, HDL, or LDL
inhibition of PIP51K1C (panel of 631 kinases): 54 % inhibition
kinases inhibited with >50% inhibition in panel of 631 kinases (panel of 631 kinases): Only one kinase was inhibited with >50% inhibition
IC50 (CYP450 2C19): > 8 µM
median time of mean peak plasma concentrations ([5]; Cohorts 1-3, 5 to 30 mg once daily): 3 to 4 h
inter-subject variability, CV for AUC0-tau ([5]; human, in vivo): 47-269%
inter-subject variability, CV for Cmax ([5]; human, in vivo): 55-111%
disease activity in rat AIA model [6]: suppressed disease activity in a dose-related manner
overall safety and tolerability [7]: generally safe and well tolerated
inhibition for 85 targets of the 87 target panel [8]: <50% inhibition for 85
inhibition of LCK [8]: LCK (54%) and the adenosine
inhibition of the adenosine transporter [8]: transporter (53%)
Hep Clpred (hepatocytes): 0.69* mL/min/kg
